Literature values as cited in patent US20140302178A1, “Natural Product for Decreasing Symptoms During Viral Infections” (priority 2013, published 2014).

system: Herpes Simplex Virus (HSV); conditions: oral antiviral therapy; pooled meta-analysis

Row | Compound | decrease of outbreak duration and the associated pain
1 | Nc1nc2c(ncn2COCCO)c(=O)[nH]1 [aciclovir] | 1 days
2 | CC(C)[C@H](N)C(=O)OCCOCn1cnc2c(=O)[nH]c(N)nc21 [valaciclovir] | 1 days
3 | CC(=O)OCC(CCn1cnc2cnc(N)nc21)COC(C)=O [famciclovir] | 1 days
